Assay results as given in the supplement of paper PMC6045584.
± gives the standard deviation of the averaged measurements.

How the values were obtained:
[1] = compound: Oc1ccc(/C=C/c2cc(O)cc(O)c2)cc1 [RESVERATROL]; assay: area under dose-response curve of surviving fraction (unscaled, Aref=0) (surviving fraction x log10(nM)); higher = more resistant; conditions: exposure time: 5 days; dose range 0.5-1000 nM
How it was run: (§1)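 Surviving fractions were fitted by 3-parameter logistic regression in the drc R package to give dose-response survival curves. They came from tumour cell lines treated for five days with eight inhibitor concentrations from 0.5 to 1000 nM and read by CellTiter-Glo luminescence against DMSO-only wells. The area under the curve is the unscaled activity area. It was calculated over log10 dose with Aref = 0.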

[2] = compound: C=CCNC1=C2C[C@@H](C)C[C@H](OC)[C@H](O)[C@@H](C)/C=C(\C)[C@H](OC(N)=O)[C@@H](OC)/C=C\C=C(/C)C(=O)NC(=CC1=O)C2=O [17-AAG]; assay: as above; conditions: exposure time: 5 days; dose range 0.5-1000 nM
How it was run: as §1

[3] = compound: T1, COc1cccc2c1C(=O)c1c(O)c3c(c(O)c1C2=O)C[C@@](O)(C(=O)CO)C[C@@H]3O[C@H]1C[C@H](N)[C@H](O)[C@H](C)O1 [DOXORUBICIN]; assay: as above; conditions: exposure time: 5 days; dose range 0.5-1000 nM
How it was run: as §1

[4] = compound: CCN(CC)CCCCNc1ncc2cc(-c3cc(OC)cc(OC)c3)c(NC(=O)NC(C)(C)C)nc2n1; assay: as above; conditions: exposure time: 5 days; dose range 0.5-1000 nM
How it was run: as §1

[5] = compound: CC[C@@H](C(=O)[C@@H](C)[C@@H](O)[C@H](C)[C@@H]1O[C@@H]([C@@H](CC)C(=O)O)CC[C@@H]1C)[C@H]1O[C@]2(C=C[C@@H](O)[C@]3(CC[C@@](C)([C@H]4CC[C@](O)(CC)[C@H](C)O4)O3)O2)[C@H](C)C[C@@H]1C [SALINOMYCIN]; assay: as above; conditions: exposure time: 5 days; dose range 0.5-1000 nM
How it was run: as §1

[6] = compound: CS(=O)(=O)CCNCc1ccc(-c2ccc3ncnc(Nc4ccc(OCc5cccc(F)c5)c(Cl)c4)c3c2)o1 [LAPATINIB]; assay: as above; conditions: exposure time: 5 days; dose range 0.5-1000 nM
How it was run: as §1

[7] = compound: Nc1ncn([C@H]2C[C@H](O)[C@@H](CO)O2)c(=O)n1 [DECITABINE]; assay: as above; conditions: exposure time: 5 days; dose range 0.5-1000 nM
How it was run: as §1

[8] = compound: CS(=O)(=O)c1ccc(C(=O)Nc2ccc(Cl)c(-c3ccccn3)c2)c(Cl)c1 [VISMODEGIB]; assay: as above; conditions: exposure time: 5 days; dose range 0.5-1000 nM
How it was run: as §1

[9] = compound: COc1cc2c(cc1O)CC[C@@H]1[C@@H]2CC[C@]2(C)[C@@H](O)CC[C@@H]12 [2-METHOXYESTRADIOL]; assay: as above; conditions: exposure time: 5 days; dose range 0.5-1000 nM
How it was run: as §1

[10] = compound: O=c1[nH]cc(F)c(=O)[nH]1 [FLUOROURACIL]; assay: as above; conditions: exposure time: 5 days; dose range 0.5-1000 nM
How it was run: as §1

[11] = compound: CN1CC[C@H](c2c(O)cc(O)c3c(=O)cc(-c4ccccc4Cl)oc23)[C@H](O)C1 [FLAVOPIRIDOL]; assay: as above; conditions: exposure time: 5 days; dose range 0.5-1000 nM
How it was run: as §1

[12] = compound: CN(C)CC[C@H](CSc1ccccc1)Nc1ccc(S(=O)(=O)NC(=O)c2ccc(N3CCN(Cc4ccccc4-c4ccc(Cl)cc4)CC3)cc2)cc1[N+](=O)[O-] [ABT-737]; assay: as above; conditions: exposure time: 5 days; dose range 0.5-1000 nM
How it was run: as §1

[13] = compound: T1, DOXORUBICIN; assay: surviving fraction relative to DMSO-only wells; higher = less growth inhibition; conditions: exposure time: 5 days
How it was run: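 Five days of continuous inhibitor exposure, at 0.5, 1, 5, 10, 50, 100, 500 and 1000 nM, followed a 24-hour period after log-phase tumour cell lines were seeded at 250–500 cells per well in 384-well plates. Surviving fraction was derived from CellTiter-Glo luminescence relative to the median of DMSO-only wells. Plates were read after 10 minutes at room temperature, and lines screened three times were kept only if replicate Pearson r >0.7 and median Z' >0.3.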

Test System	area under dose-response curve [1]	area under dose-response curve [2]	area under dose-response curve [3]	area under dose-response curve [4]	area under dose-response curve [5]	area under dose-response curve [6]	area under dose-response curve [7]	area under dose-response curve [8]	area under dose-response curve [9]	area under dose-response curve [10]	area under dose-response curve [11]	area under dose-response curve [12]	surviving fraction ([13]; 0.5 nM)	surviving fraction ([13]; 1 nM)	surviving fraction ([13]; 5 nM)	surviving fraction ([13]; 10 nM)	surviving fraction ([13]; 50 nM)	surviving fraction ([13]; 100 nM)	surviving fraction ([13]; 500 nM)	surviving fraction ([13]; 1000 nM)
PCI30 HEADNECK	3.54	1.97	2.03	3.28	2.49	3.52	3.24	3.04	2.94	3.3	2.11	3.56	0.979 ± 0.094	0.929 ± 0.01	0.92 ± 0.13	0.637 ± 0.061	0.551 ± 0.022	0.587 ± 0.024	0.079 ± 0.023	0.03 ± 0.0027
SKBR3 BREAST	3.5	1.25	1.72	3.1	2.84	2.38	3.29	3.07	3.2	2.95	2.07	3.52	0.804 ± 0.17	0.871 ± 0.1	0.852 ± 0.049	0.724 ± 0.16	0.375 ± 0.026	0.256 ± 0.0044	0.0547 ± 0.0061	0.0297 ± 0.0032
SYO1 SYNOVIAL	3.23	1.74	0.851	2.51	2.04	3.2	2.46	3	2.75	2.82	1.9	3	0.944 ± 0.065	0.906 ± 0.017	0.39 ± 0.066	0.176 ± 0.05	0.0563 ± 0.015	0.0384 ± 0.0093	0.0205 ± 0.00087	0.0309 ± 0.0013
T47D BREAST	3.51	2.74	2.13	3.36	3.3	3.39	3.53	3.3	3.15	3.16	2.51	3.61	1.03 ± 0.03	1 ± 0.038	0.892 ± 0.018	0.673 ± 0.064	0.708 ± 0.021	0.518 ± 0.023	0.197 ± 0.033	0.0751 ± 0.0032
